Laboratory results taken from patent EP3928779A1 (Chugai Seiyaku Kabushiki Kaisha, priority 2014, dated 2016).

test system: rat small-intestinal brush border membrane vesicles; assay: Inhibitory effect on 33PO4 uptake into rat small-intestinal brush border membrane vesicles (rapid filtration method); assay type: biochemical; details: 33PO4 uptake into rat small-intestinal BBMVs; test compound 1 µM; reacted for 60 seconds
How it was run: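 Uptake of ^33PO4 was measured by rapid filtration and liquid scintillation counting of filter-retained vesicles, after quenching with ice-cold 110 mM NaCl/1 mM KH2PO4/10 mM HEPES pH 7.5. Vesicles were brush border membranes from the upper small intestine of female Wistar rats aged 4–5 weeks.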

Compound	Rate of uptake inhibition (%) (1 µM)
CN1N(Cc2ccc(C#CCN3CCOCC3)c(F)c2F)C(=O)C(C(=O)Nc2ccc(Cl)cc2-c2cc(C(F)(F)F)ncn2)=C(O)C1(C)C [Example 316, N-[4-Chloro-2-[6-(trifluoromethyl)pyrimidin-4-yl]phenyl]-2-[[2,3-difluoro-4-(3-morpholin-4-ylprop-1-ynil)phenyl]methyl]-5-hydroxy-1,6,6-trimethyl-3-oxopyridaxine-4-carboxamide]	64%
CN1N(Cc2ccc(OCCN3CCOCC3)c(F)c2F)C(=O)C(C(=O)Nc2ccc(C(F)(F)F)cc2-c2cc(C(F)(F)F)ncn2)=C(O)C12CCCC2 [Example 318, 7-[[2,3-Difluoro-4-(2-morpholin-4-ylethoxy)phenyl]methyl]-10-hydroxy-6-methyl-8-oxo-N-[4-(trifluoromethyl)-2-[6-(tritluoromethyl)pyrimidin-4-yl]phenyl]-6,7-diazaspiro[4.5]dec-9-ene-9-carboxamide]	43%
CN1N(Cc2ccc(OCCCC(=O)O)c(F)c2F)C(=O)C(C(=O)Nc2ccc(C(F)(F)F)cc2-c2cc(C(F)(F)F)ncn2)=C(O)C12CCCC2 [Example 332, 4-[2,3-Difluoro-4-[[10-hydroxy-6-methyl-8-oxo-9-[[4-(trifluoromethyl)-2-[6-(trifluoromethyl)pyrimidin-4-yl]phenyl]carbamoyl]-6,7-diazaspiro[4.5]dec-9-en-7-yl]methyl]phenoxy]butanoate]	3%
CN1N(Cc2ccc(OCCCCCC(=O)O)c(F)c2F)C(=O)C(C(=O)Nc2ccc(C(F)(F)F)cc2-c2cc(C(F)(F)F)ncn2)=C(O)C12CCCC2 [Example 334]	22%
CN1N(Cc2ccc(OCCCCCCC(=O)O)c(F)c2F)C(=O)C(C(=O)Nc2ccc(C(F)(F)F)cc2-c2cc(C(F)(F)F)ncn2)=C(O)C12CCCC2 [Example 335]	30%
CN1N(Cc2ccc(OCC(=O)N3CCOCC3)c(F)c2F)C(=O)C(C(=O)Nc2ccc(C(F)(F)F)cc2-c2cc(C(F)(F)F)ncn2)=C(O)C12CCC2 [Example 336]	44%
CN1N(Cc2ccc(OCCN3CCOC(=O)C3)c(F)c2F)C(=O)C(C(=O)Nc2ccc(C(F)(F)F)cc2-c2cc(C(F)(F)F)ncn2)=C(O)C12CCC2 [Example 337, 8-[[2,3-Difluoro-4-[2-(2-oxomorpholin-4-yl)ethoxy]phenyl]methyl]-5-hydroxy-9-methyl-7-oxo-N-[4-(trifluoromethyl)-2-[6-(trifluoromethyl)pyrimidin-4-yl]phenyl)-8.9-diazaspiro [3. 5]non-5-ene-6-carboxamide]	47%
CN(CCOc1ccc(CN2C(=O)C(C(=O)Nc3ccc(C(F)(F)F)cc3-c3cc(C(F)(F)F)ncn3)=C(O)C3(CCC3)N2C)c(F)c1F)C1CCOC1 (stereo not shown) [Example 338, 6-[[2,3-Difluoro-4-[2-[methyl(oxolan-3-yl)amino]ethoxy]phenyl]methyl]-9-hydroxy-5-methyl-7-oxo-N-[4-(trifluoromethyl)-2-[6-(trifluoromethyl)pyrimidin-4-yl]phenyl]-5,6-diazaspiro[3.5]non-8-ene-8-carboxamide]	66%
CN1N(Cc2ccc(OCCN3[C@@H]4COC[C@H]3C4)c(F)c2F)C(=O)C(C(=O)Nc2ccc(C(F)(F)F)cc2-c2cc(C(F)(F)F)ncn2)=C(O)C12CCC2 [Example 339]	66%
CN1N(Cc2ccc(OCCN3C4CCC3COC4)c(F)c2F)C(=O)C(C(=O)Nc2ccc(C(F)(F)F)cc2-c2cc(C(F)(F)F)ncn2)=C(O)C12CCC2 [Example 340]	63%
CN1N(Cc2ccc(OCCN3CCOCC3(C)C)c(F)c2F)C(=O)C(C(=O)Nc2ccc(C(F)(F)F)cc2-c2cc(C(F)(F)F)ncn2)=C(O)C12CCC2 [Example 341]	64%
CN1N(Cc2ccc(OCCN3CCOC(C)(C)C3)c(F)c2F)C(=O)C(C(=O)Nc2ccc(C(F)(F)F)cc2-c2cc(C(F)(F)F)ncn2)=C(O)C12CCC2 [Example 342]	43%
C[C@H]1COC[C@H](C)N1CCOc1ccc(CN2C(=O)C(C(=O)Nc3ccc(C(F)(F)F)cc3-c3cc(C(F)(F)F)ncn3)=C(O)C3(CCC3)N2C)c(F)c1F [Example 343]	68%
C[C@@H]1COC[C@H](C)N1CCOc1ccc(CN2C(=O)C(C(=O)Nc3ccc(C(F)(F)F)cc3-c3cc(C(F)(F)F)ncn3)=C(O)C3(CCC3)N2C)c(F)c1F [Example 344]	58%
COC(=O)CN(C)CCOc1ccc(CN2C(=O)C(C(=O)Nc3ccc(C(F)(F)F)cc3-c3cc(C(F)(F)F)ncn3)=C(O)C3(CCC3)N2C)c(F)c1F [Example 346]	42%
CN(CCO)CCOc1ccc(CN2C(=O)C(C(=O)Nc3ccc(C(F)(F)F)cc3-c3cc(C(F)(F)F)ncn3)=C(O)C3(CCC3)N2C)c(F)c1F [Example 347]	28%
COCCN(CCOC)CCOc1ccc(CN2C(=O)C(C(=O)Nc3ccc(C(F)(F)F)cc3-c3cc(C(F)(F)F)ncn3)=C(O)C3(CCC3)N2C)c(F)c1F [Example 348]	31%
COCC(C)(C)N(C)CCOc1ccc(CN2C(=O)C(C(=O)Nc3ccc(C(F)(F)F)cc3-c3cc(C(F)(F)F)ncn3)=C(O)C3(CCC3)N2C)c(F)c1F [Example 349]	55%
COC(C)(C)CN(C)CCOc1ccc(CN2C(=O)C(C(=O)Nc3ccc(C(F)(F)F)cc3-c3cc(C(F)(F)F)ncn3)=C(O)C3(CCC3)N2C)c(F)c1F [Example 350]	45%
CN1N(Cc2ccc(OCCN(CCO)CCO)c(F)c2F)C(=O)C(C(=O)Nc2ccc(C(F)(F)F)cc2-c2cc(C(F)(F)F)ncn2)=C(O)C12CCC2 [Example 351]	22%

Compound	Rate of uptake inhibition (%) (1 µM)
CN1N(Cc2ccc(OCCn3cncn3)c(F)c2F)C(=O)C(C(=O)Nc2ccc(C(F)(F)F)cc2-c2cc(C(F)(F)F)ncn2)=C(O)C12CCC2 [Example 352]	27%
CC(=O)NCCN(C)CCOc1ccc(CN2C(=O)C(C(=O)Nc3ccc(C(F)(F)F)cc3-c3cc(C(F)(F)F)ncn3)=C(O)C3(CCC3)N2C)c(F)c1F [Example 353]	26%
CC(=O)N(C)CCN(C)CCOc1ccc(CN2C(=O)C(C(=O)Nc3ccc(C(F)(F)F)cc3-c3cc(C(F)(F)F)ncn3)=C(O)C3(CCC3)N2C)c(F)c1F [Example 354]	31%
COC(=O)[C@@H]1CCCN1CCOc1ccc(CN2C(=O)C(C(=O)Nc3ccc(C(F)(F)F)cc3-c3cc(C(F)(F)F)ncn3)=C(O)C3(CCC3)N2C)c(F)c1F [Example 355]	36%
COC1(C)CN(CCOc2ccc(CN3C(=O)C(C(=O)Nc4ccc(C(F)(F)F)cc4-c4cc(C(F)(F)F)ncn4)=C(O)C4(CCC4)N3C)c(F)c2F)C1 [Example 356]	58%
CSC1CN(CCOc2ccc(CN3C(=O)C(C(=O)Nc4ccc(C(F)(F)F)cc4-c4cc(C(F)(F)F)ncn4)=C(O)C4(CCC4)N3C)c(F)c2F)C1 [Example 357]	45%
CN1N(Cc2ccc(OCCN3CCC(N4CCOCC4)CC3)c(F)c2F)C(=O)C(C(=O)Nc2ccc(C(F)(F)F)cc2-c2cc(C(F)(F)F)ncn2)=C(O)C12CCC2 [Example 358]	34%
CN1CCN(CCOc2ccc(CN3C(=O)C(C(=O)Nc4ccc(C(F)(F)F)cc4-c4cc(C(F)(F)F)ncn4)=C(O)C4(CCC4)N3C)c(F)c2F)CC1=O [Example 359]	37%
CN1N(Cc2ccc(OCCN3CCN(CCO)CC3)c(F)c2F)C(=O)C(C(=O)Nc2ccc(C(F)(F)F)cc2-c2cc(C(F)(F)F)ncn2)=C(O)C12CCC2 [Example 360]	21%
CN1N(Cc2ccc(OCCN3CCN(CCOCCO)CC3)c(F)c2F)C(=O)C(C(=O)Nc2ccc(C(F)(F)F)cc2-c2cc(C(F)(F)F)ncn2)=C(O)C12CCC2 [Example 361]	20%
CN1N(Cc2ccc(OCCN3CCN(CCCO)CC3)c(F)c2F)C(=O)C(C(=O)Nc2ccc(C(F)(F)F)cc2-c2cc(C(F)(F)F)ncn2)=C(O)C12CCC2 [Example 362]	17%
CN1N(Cc2ccc(OCCN3CCN(S(C)(=O)=O)CC3)c(F)c2F)C(=O)C(C(=O)Nc2ccc(C(F)(F)F)cc2-c2cc(C(F)(F)F)ncn2)=C(O)C12CCC2 [Example 363]	11%
CN(C)C(=O)N1CCN(CCOc2ccc(CN3C(=O)C(C(=O)Nc4ccc(C(F)(F)F)cc4-c4cc(C(F)(F)F)ncn4)=C(O)C4(CCC4)N3C)c(F)c2F)CC1 [Example 364]	36%
CN(CCOc1ccc(CN2C(=O)C(C(=O)Nc3ccc(C(F)(F)F)cc3-c3cc(C(F)(F)F)ncn3)=C(O)C3(CCCC3)N2C)c(F)c1F)C1CCOCC1 [Example 365]	34%
CN(CCOc1ccc(CN2C(=O)C(C(=O)Nc3ccc(C(F)(F)F)cc3-c3cc(C(F)(F)F)ncn3)=C(O)C3(CCCC3)N2C)c(F)c1F)C1CCOC1 (stereo not shown) [Example 366]	38%
CN1N(Cc2ccc(OCCN3C4CCC3COC4)c(F)c2F)C(=O)C(C(=O)Nc2ccc(C(F)(F)F)cc2-c2cc(C(F)(F)F)ncn2)=C(O)C12CCCC2 [Example 367]	43%
COC(=O)CN(C)CCOc1ccc(CN2C(=O)C(C(=O)Nc3ccc(C(F)(F)F)cc3-c3cc(C(F)(F)F)ncn3)=C(O)C3(CCCC3)N2C)c(F)c1F [Example 368]	26%
CN1N(Cc2ccc(OCCN3CC(F)(F)C3)c(F)c2F)C(=O)C(C(=O)Nc2ccc(C(F)(F)F)cc2-c2cc(C(F)(F)F)ncn2)=C(O)C12CCCC2 [Example 369]	43%
C[C@@H]1COC[C@H](C)N1CCOc1ccc(CN2C(=O)C(C(=O)Nc3ccc(C(F)(F)F)cc3-c3cc(C(F)(F)F)ncn3)=C(O)C3(CCCC3)N2C)c(F)c1F [Example 370]	41%
CN1N(Cc2ccc(OCCN3CCOCC3(C)C)c(F)c2F)C(=O)C(C(=O)Nc2ccc(C(F)(F)F)cc2-c2cc(C(F)(F)F)ncn2)=C(O)C12CCCC2 [Example 371]	38%
